Target: T1, Human M4 (Homo sapiens, UniProt P08173)
T1 sequence (P08173 1-479): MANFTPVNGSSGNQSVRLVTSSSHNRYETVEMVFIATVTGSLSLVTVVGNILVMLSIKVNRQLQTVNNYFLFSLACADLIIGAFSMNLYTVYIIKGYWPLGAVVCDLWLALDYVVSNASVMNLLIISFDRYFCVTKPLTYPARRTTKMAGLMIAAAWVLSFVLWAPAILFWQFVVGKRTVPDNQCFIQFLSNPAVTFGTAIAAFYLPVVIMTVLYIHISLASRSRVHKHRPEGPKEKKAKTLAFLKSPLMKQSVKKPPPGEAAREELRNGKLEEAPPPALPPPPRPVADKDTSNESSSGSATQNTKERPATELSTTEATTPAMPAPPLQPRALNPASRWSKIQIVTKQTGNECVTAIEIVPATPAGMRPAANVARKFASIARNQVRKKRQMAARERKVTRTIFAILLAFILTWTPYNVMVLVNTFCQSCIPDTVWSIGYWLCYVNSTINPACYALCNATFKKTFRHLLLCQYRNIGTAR
Test: M4 cell-based functional assay (calcium mobilization)
Design: expressed in transfected cells
Conditions: for Emax at 30 µM: % ACh maximum at 30 μM; for EC50: CHO-K1 hM4-Gqi5 cells, calcium flux, increase in EC20 acetylcholine response
Protocol: Human (h) and rat (r) M4 CDNAs, along with the chimeric G protein Gqi5, were transfected into Chinese hamster ovary (CHO-K1) cells purchased from the American Type Culture Collection using Lipofectamine2000. The transfected cells were subjected to selection antibiotic treatment to generate stable cell lines; G418 sulfate (1 mg/ml) for selecting M4 expressing cells and Hygromycin B (500 μg/mL) for selecting Gqi5 expressing cells. The resulting polyclones were further screened to obtain monoclones of hM4-Gqi5 and rM4-Gqi5 for compound screening assay. Stable monoclone cells were maintained in Ham's F-12 medium containing 10% heat-inactivated fetal bovine serum (FBS), 1× Antibiotic/Antimycotic, 20 mM HEPES, 500 μg/mL G418 sulfate, and 200 μg/mL Hygromycin B in 37° C. humidified incubators in the presence of 5% CO2.
The high throughput assay was employed to measure receptor-induced mobilization of intracellular calcium to determine compound activity. Test compound was added to cells expressing the muscarinic receptors that were loaded with calcium sensitive fluorescent dye. After a ˜2.5 minute incubation period, a submaximal (EC20) concentration of acetylcholine was added, and the response measured. This kinetic assay allows for simultaneous screening and potency determination of multiple pharmacological modes of action including agonist and potentiator activity. CHO-K1 cells stably expressing muscarinic receptors were plated in growth medium lacking G418 and hygromycin at 15,000 cells/20 μL/well in Greiner 384-well black-walled, tissue culture (TC)-treated, clear-bottom plates (Greiner Bio-One). Cells were incubated overnight at 37° C. and 5% CO2. The next day, calcium assay buffer (Hank's balanced salt solution (HBSS), 20 mM HEPES, 2.5 mM Probenecid, 4.16 mM sodium bicarbonate (Sigma-Aldrich, St. Louis, MO)) was prepared to dilute compounds, agonists, and Fluo-4-acetomethoxyester (Fluo-4-AM), fluorescent calcium indicator dye. Compounds were serially diluted 1:3 into 10 point concentration response curves in DMSO using the Bravo Liquid Handler (Agilent, Santa Clara, CA), transferred to a 384 well daughter plates using an Echo acoustic liquid handler (Beckman Coulter, Indianapolis, Indiana), and diluted in assay Buffer to a 2× final concentration. The agonist plates were prepared using acetylcholine (ACh, Sigma-Aldrich, St. Louis, MO) concentrations for the EC20 and ECMAX responses by diluting in assay buffer to a 5× final concentration. The 2× dye solution (2.3 μM) was prepared by mixing a 2.3 mM Fluo-4-AM stock in DMSO with 10% (w/v) pluronic acid F-127 in a 1:1 ratio in assay buffer. Using a microplate washer (BioTek, Winooski, VT), cells were washed with assay buffer for 3 times to remove medium. After the final wash, 20 μL of assay buffer remained in the cell plates. Immediately, 20 μL of the 2× dye solution (final 1.15 μM) was added to each well of the cell plate using a Multidrop Combi dispenser (Thermo Fisher, Waltham, MA). After cells were incubated with the dye solutions for 45 min at 37° C. in the presence of 5% CO2, the dye solutions were removed and replaced with assay buffer using a microplate washer, leaving 20 μL of assay buffer in the cell plate.
The prepared compound, agonist, and cell plates were placed inside the Functional Drug Screening System uCell (FDSS uCell, Hamamatsu, Japan) to measure the calcium flux.
The triple add protocol was used to measure Ca kinetics; Compound, ACh for EC2O, and ACh for EC80 adds in an order. Briefly, after establishment of a fluorescence baseline for 2 seconds (excitation, 480 nm; emission, 530 nm), first add occurred by adding 20 μL of test compound to the cells, and the response was measured for 140 seconds. This is followed by second add; 10 μL (5×) of an EC20 concentration of ACh agonist was added to the cells, and the response of the cells was measured for 125 seconds. […]

Emax at 30 µM | EC50 | Compound
49% | 1290 nM | Cc1c(C#N)nnc(N2CCc3nc(Nc4ccc(F)cc4)sc3C2)c1C [Compound 7, 6-(2-((4-fluorophenyl)amino)-6,7-dihydrothiazolo[5,4-c]pyridin-5(4H)-yl)-4,5-dimethylpyridazine-3-carbonitrile]
68% | 566 nM | COc1ccc2ncnc(N3CCc4nc(Br)sc4C3)c2c1 [Compound 31, 2-bromo-5-(6-methoxyquinazolin-4-yl)-4,5,6,7-tetrahydrothiazolo[5,4-c]pyridine]
87% | 2180 nM | Cc1cc2nc(C(=O)NC3CC(CC(F)(F)F)C3)cc(=O)n2nc1N1CCc2nc(Br)sc2C1 (centres unmarked) [Compound 48, 7-(2-bromo-6,7-dihydrothiazolo[5,4-c]pyridin-5(4H)-yl)-8-methyl-4-oxo-N-(3-(2,2,2-trifluoroethyl)cyclobutyl)-4H-pyrimido[1,2-b]pyridazine-2-carboxamide]
105% | 87 nM | Cc1c(N2CCc3nc(C4CC4)sc3C2)nc2nn(CC3CC(F)(F)C3)c(=O)n2c1C [Compound 76, 7-(2-cyclopropyl-6,7-dihydrothiazolo[5,4-c]pyridin-5(4H)-yl)-2-((3,3-difluorocyclobutyl)methyl)-5,6-dimethyl-[1,2,4]triazolo[4,3-a]pyrimidin-3(2H)-one]
51% | 5230 nM | Cc1nc(Cl)c(C)c(N2CCc3nc(Nc4ccccc4F)sc3C2)n1 [Compound 14, 5-(6-chloro-2,5-dimethylpyrimidin-4-yl)-N-(2-fluorophenyl)-4,5,6,7-tetrahydrothiazolo[5,4-c]pyridin-2-amine]
63% | 738 nM | Cc1cc2nccnc2nc1N1CCc2nc(C3CC3(C)C)sc2C1 (centres unmarked) [Compound 63, 2-(2,2-dimethylcyclopropyl)-5-(7-methylpyrido[2,3-b]pyrazin-6-yl)-4,5,6,7-tetrahydrothiazolo[5,4-c]pyridine]
76% | 253 nM | Cc1cc2nccnc2nc1N1CCc2nc(C3(C)CC3)sc2C1 [Compound 55, 2-(1-methylcyclopropyl)-5-(7-methylpyrido[2,3-b]pyrazin-6-yl)-4,5,6,7-tetrahydrothiazolo[5,4-c]pyridine]
87% | 418 nM | Cc1cc2nc(C(=O)NCc3cncs3)cc(=O)n2nc1N1CCc2nc(Br)sc2C1 [Compound 42, 7-(2-bromo-6,7-dihydrothiazolo[5,4-c]pyridin-5(4H)-yl)-8-methyl-4-oxo-N-(thiazol-5-ylmethyl)-4H-pyrimido[1,2-b]pyridazine-2-carboxamide]
91% | 200 nM | Cc1nc(N2CCc3nc(Br)sc3C2)c2cc(Cl)ccc2n1 [Compound 32, 2-bromo-5-(6-chloro-2-methylquinazolin-4-yl)-4,5,6,7-tetrahydrothiazolo[5,4-c]pyridine]
87% | 1960 nM | Cc1cc2nc(C(=O)N3CC(C)C3)cc(=O)n2nc1N1CCc2nc(Br)sc2C1 [Compound 43, 7-(2-bromo-6,7-dihydrothiazolo[5,4-c]pyridin-5(4H)-yl)-8-methyl-2-(3-methylazetidine-1-carbonyl)-4H-pyrimido[1,2-b]pyridazin-4-one]
93% | 2390 nM | COC1CN(C(=O)c2cc(=O)n3nc(N4CCc5nc(Br)sc5C4)c(C)cc3n2)C1 [Compound 44, 7-(2-bromo-6,7-dihydrothiazolo[5,4-c]pyridin-5(4H)-yl)-2-(3-methoxyazetidine-1-carbonyl)-8-methyl-4H-pyrimido[1,2-b]pyridazin-4-one]
99% | 79 nM | Cc1nc(N2CCc3nc(Br)sc3C2)c2cc(F)ccc2n1 [Compound 33, 2-bromo-5-(6-fluoro-2-methylquinazolin-4-yl)-4,5,6,7-tetrahydrothiazolo[5,4-c]pyridine]
85% | 752 nM | Cc1cc2nc(C(=O)N3CC(C)(F)C3)cc(=O)n2nc1N1CCc2nc(Br)sc2C1 [Compound 45, 7-(2-bromo-6,7-dihydrothiazolo[5,4-c]pyridin-5(4H)-yl)-2-(3-fluoro-3-methylazetidine-1-carbonyl)-8-methyl-4H-pyrimido[1,2-b]pyridazin-4-one]
102% | 50 nM | Cc1cc2c(N3CCc4nc(Br)sc4C3)ncnc2s1 [Compound 24, 2-bromo-5-(6-methylthieno[2,3-d]pyrimidin-4-yl)-4,5,6,7-tetrahydrothiazolo[5,4-c]pyridine]
98% | 430 nM | Brc1nc2c(s1)CN(c1ncnc3ccsc13)CC2 [Compound 26, 2-bromo-5-(thieno[3,2-d]pyrimidin-4-yl)-4,5,6,7-tetrahydrothiazolo[5,4-c]pyridine]
82% | 32 nM | Cc1cc2nccnc2nc1N1CCc2nc(C3CC3)sc2C1 [Compound 54, 2-cyclopropyl-5-(7-methylpyrido[2,3-b]pyrazin-6-yl)-4,5,6,7-tetrahydrothiazolo[5,4-c]pyridine]
89% | 291 nM | Cc1cc(=O)n2nc(N3CCc4nc(Br)sc4C3)c(C)cc2n1 [Compound 35, 7-(2-bromo-6,7-dihydrothiazolo[5,4-c]pyridin-5(4H)-yl)-2,8-dimethyl-4H-pyrimido[1,2-b]pyridazin-4-one]
80% | 1180 nM | Cc1cc2nc(C)c(C)c(=O)n2nc1N1CCc2nc(Br)sc2C1 [Compound 38, 7-(2-bromo-6,7-dihydrothiazolo[5,4-c]pyridin-5(4H)-yl)-2,3,8-trimethyl-4H-pyrimido[1,2-b]pyridazin-4-one]
92% | 3170 nM | Cc1cc(C#N)cnc1N1CCc2ncsc2C1 [Compound 17, 6-(6,7-dihydrothiazolo[5,4-c]pyridin-5(4H)-yl)-5-methylnicotinonitrile]
94% | 7 nM | Cc1c(N2CCc3nc(C4CC4)sc3C2)nc2nn(CC3CC3(F)F)c(=O)n2c1C (centres unmarked) [Compound 74, 7-(2-cyclopropyl-6,7-dihydrothiazolo[5,4-c]pyridin-5(4H)-yl)-2-((2,2-difluorocyclopropyl)methyl)-5,6-dimethyl-[1,2,4]triazolo[4,3-a]pyrimidin-3(2H)-one]
90% | 666 nM | Cc1nc2c(s1)CN(c1nc3nccnc3cc1C)CC2 [Compound 57, 2-methyl-5-(7-methylpyrido[2,3-b]pyrazin-6-yl)-4,5,6,7-tetrahydrothiazolo[5,4-c]pyridine]
91% | 12 nM | Cc1c(N2CCc3nc(C4CC4)sc3C2)nc2nn(CC3(C#N)CC3)c(=O)n2c1C [Compound 73, 1-((7-(2-cyclopropyl-6,7-dihydrothiazolo[5,4-c]pyridin-5(4H)-yl)-5,6-dimethyl-3-oxo-[1,2,4]triazolo[4,3-a]pyrimidin-2(3H)-yl)methyl)cyclopropane-1-carbonitrile]
